This note sets out measurements from patent US5140009A (Tap Pharmaceuticals, Inc., priority 1990, dated 1992).

The target of the test is T1, LHRH receptors (Rattus norvegicus, UniProt P30969).
T1 construct: Pituitary membranes containing LHRH receptors are prepared in batches from quick-frozen rat pituitaries; tissue Hilltop Labs; host or cells: rat pituitary membranes
T1 sequence (P30969 1-327): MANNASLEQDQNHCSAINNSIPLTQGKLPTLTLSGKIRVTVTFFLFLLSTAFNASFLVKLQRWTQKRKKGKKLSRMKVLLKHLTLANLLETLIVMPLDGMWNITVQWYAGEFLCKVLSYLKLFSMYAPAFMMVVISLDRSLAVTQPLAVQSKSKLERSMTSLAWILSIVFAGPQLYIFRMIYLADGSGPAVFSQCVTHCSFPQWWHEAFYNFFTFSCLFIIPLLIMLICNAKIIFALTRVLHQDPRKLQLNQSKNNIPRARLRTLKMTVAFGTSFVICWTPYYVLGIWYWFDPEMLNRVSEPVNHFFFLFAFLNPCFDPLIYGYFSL
In words: Receptor Binding (radioligand receptor binding assay). To be noted: table 3, rat pituitary membranes, radioiodinated [D-Leu^6 -des Gly^10 ]-LHRH ethyl amide 50 pM, 2 hours at 4° C.

[1] abbreviates: read-out: Receptor Binding pkI (converted).

The structures appear in SMILES notation. Read-outs that look alike come from different tables or passages of the source. Numbered stars: 1 amine (or outer) side, 2 acyl side, 3 side chain; on linkers, the order of the positions; unused ones are H or OH. Square brackets hold non-standard residues; d marks the D form. Peptide text beside a SMILES is read from it. * marks the point of attachment. Propanoyl(3-(4-F-phenyl)) = O=C(CCc1ccc(F)cc1)*; Phe(4-Cl) = N[C@@H](Cc1ccc(Cl)cc1)C(=O)O; 1Nal = N[C@@H](Cc1cccc2ccccc12)C(=O)O; d2Nal = N[C@H](Cc1ccc2ccccc2c1)C(=O)O; NMeY = CN[C@@H](Cc1ccc(O)cc1)C(=O)O; NHPhenethyl = c1ccc(CCN*)cc1; Nicotinoyl = O=C(c1cccnc1)*; X5 = C1CCC(N(C2CCCCC2)*)CC1; NMeS = CN[C@@H](CO)C(=O)O; Morpholide = C1CN(*)CCO1; NHcHex = C1CCC(N*)CC1; CO = O=C([*:1])[*:2]; For = O=C*

Consider `CCNC(=O)[C@@H]1CCCN1C(=O)[C@H](CCCNC(=N)N)NC(=O)[C@H](CC(C)C)NC(=O)[C@@H](Cc1c[nH]c2ccccc12)NC(=O)[C@H](Cc1ccc(O)cc1)NC(=O)[C@H](CO)NC(=O)[C@@H](Cc1ccc(O)cc1)NC(=O)[C@H](Cc1ccccc1)NC(=O)N1CCOCC1` [Compound 108, (2-9)[N-(N-alpha-Morpholinocarbonyl)-Phe^2 -D-Tyr^3 -D-Trp^6 -Pro^9 NHEt]LHRH] ({Morpholide-CO}-F[dY]SY[dW]LRP-NHEt), for which, under setting [1], the Ki was 0.182 nM.
Still for that read-out and setting: under `CCNC(=O)[C@@H]1CCCN1C(=O)[C@H](CCCNC(=N)N)NC(=O)[C@H](CC(C)C)NC(=O)[C@@H](Cc1c[nH]c2ccccc12)NC(=O)[C@H](Cc1ccc(O)cc1)NC(=O)[C@H](CO)NC(=O)[C@H](Cc1c[nH]c2ccccc12)NC(=O)[C@H](Cc1c[nH]cn1)NC(=O)N1CCOCC1` [Compound 109, (2-9)[N-(N-alpha-Morpholinocarbonyl)-His^2 -D-Trp^6 -Pro^9 NHEt]LHRH] ({Morpholide-CO}-HWSY[dW]LRP-NHEt) stands 0.316 nM; under `CCNC(=O)[C@@H]1CCCN1C(=O)[C@H](CCCNC(=N)N)NC(=O)[C@H](CC(C)C)NC(=O)[C@@H](Cc1c[nH]c2ccccc12)NC(=O)[C@H](Cc1ccc(O)cc1)NC(=O)[C@H](CO)NC(=O)[C@H](Cc1c[nH]c2ccccc12)NC(=O)[C@H](Cc1cccc2ccccc12)NC(=O)N1CCOCC1` [Compound 110, (2-9)[N-(N-alpha-Morpholinocarbonyl)-1-Nal^2 -D-Trp^6 -Pro^9 NHEt]LHRH] ({Morpholide-CO}-[1Nal]WSY[dW]LRP-NHEt), 0.1 nM; under `CCNC(=O)[C@@H]1CCCN1C(=O)[C@H](CCCNC(=N)N)NC(=O)[C@H](CC(C)C)NC(=O)[C@@H](Cc1c[nH]c2ccccc12)NC(=O)[C@H](Cc1ccc(O)cc1)NC(=O)[C@H](CO)NC(=O)[C@H](Cc1c[nH]c2ccccc12)NC(=O)[C@@H](Cc1ccc2ccccc2c1)NC(=O)N1CCOCC1` [Compound 111, (2-9)[N-(N-alpha-Morpholinocarbonyl)-D-2-Nal^2 -D-Trp^6 -Pro^9 NHEt]LHRH] ({Morpholide-CO}-[d2Nal]WSY[dW]LRP-NHEt), 2.75 nM.
On the same count and under the same terms, the value for `CCNC(=O)[C@@H]1CCCN1C(=O)[C@H](CCCNC(=N)N)NC(=O)[C@H](CC(C)C)NC(=O)[C@@H](Cc1c[nH]c2ccccc12)NC(=O)[C@H](Cc1ccc(O)cc1)NC(=O)[C@H](CO)NC(=O)[C@H](Cc1c[nH]c2ccccc12)NC(=O)[C@H](Cc1ccc(Cl)cc1)NC(=O)N1CCOCC1` [Compound 112, (2-9)[N-(N-alpha-Morpholinocarbonyl)-4-Cl -Phe^2 -D-Trp^6 -Pro^9 NHEt]LHRH] ({Morpholide-CO}-[Phe(4-Cl)]WSY[dW]LRP-NHEt) was 0.316 nM.
With `CCNC(=O)[C@@H]1CCCN1C(=O)[C@H](CCCNC(=N)N)NC(=O)[C@H](CC(C)C)NC(=O)[C@@H](Cc1c[nH]c2ccccc12)NC(=O)[C@H](Cc1ccc(O)cc1)N(C)C(=O)[C@H](CO)NC(=O)[C@H](Cc1c[nH]c2ccccc12)NC(=O)[C@H](Cc1ccccc1)NC(=O)N1CCOCC1` [Compound 114, (2-9)[N-(N-alpha-Morpholinocarbonyl)-Phe^2 -N-Me-Tyr^5 -D-Trp^6-Pro^9 -NHEt]LHRH] ({Morpholide-CO}-FWS[NMeY][dW]LRP-NHEt), the Ki under setting [1] was 0.00575 nM.
As for `CCNC(=O)[C@@H]1CCCN1C(=O)[C@H](CCCNC(=N)N)NC(=O)[C@H](CC(C)C)NC(=O)[C@@H](Cc1c[nH]c2ccccc12)NC(=O)[C@H](Cc1ccc(O)cc1)NC(=O)[C@H](CO)N(C)C(=O)[C@H](Cc1c[nH]c2ccccc12)NC(=O)[C@H](Cc1ccccc1)NC(=O)N1CCOCC1` [Compound 115, (2-9)[N-(N-alpha-Morpholinocarbonyl)-Phe^2 -N-Me-Ser^4 -D-Trp^6-Pro^9 -NHEt]LHRH] ({Morpholide-CO}-FW[NMeS]Y[dW]LRP-NHEt), the Ki under setting [1] was 2.24 nM.
With `CCNC(=O)[C@@H]1CCCN1C(=O)[C@H](CCCNC(=N)N)NC(=O)[C@H](CC(C)C)NC(=O)[C@@H](Cc1c[nH]c2ccccc12)NC(=O)[C@H](Cc1ccc(O)cc1)NC(=O)[C@H](CO)NC(=O)[C@H](Cc1ccc(O)cc1)N(C)C(=O)[C@H](Cc1ccccc1)NC(=O)N1CCOCC1` [Compound 116, (2-9)[N-(N-alpha-Morpholinocarbonyl)-Phe^2 -N-Me-Tyr^3 -D-Trp^6-Pro^9 NHEt]LHRH] ({Morpholide-CO}-F[NMeY]SY[dW]LRP-NHEt), the Ki under setting [1] is 5.01 nM.
In the case of `CCNC(=O)[C@@H]1CCCN1C(=O)[C@H](CCCNC(=N)N)NC(=O)[C@H](CC(C)C)NC(=O)[C@@H](CCCCNC(=O)c1cccnc1)NC(=O)[C@H](Cc1ccc(O)cc1)NC(=O)[C@H](CO)NC(=O)[C@H](Cc1c[nH]c2ccccc12)NC(=O)[C@H](Cc1ccccc1)NC(=O)N1CCOCC1` [Compound 117, N-(N-alpha-Morpholinocarbonyl)-Phe-Trp-Ser-Tyr-D-Lys(Nic) -Leu-Arg-ProNHEt] ({Morpholide-CO}-FWSY[dK](Nicotinoyl)LRP-NHEt), the Ki under setting [1] was 1.86 nM.
Consider `CCNC(=O)[C@@H]1CCCN1C(=O)[C@H](CCCN=C(N)N)NC(=O)[C@H](CC(C)C)NC(=O)[C@@H](CCCCNC(=O)c1cccnc1)NC(=O)[C@H](Cc1ccc(O)cc1)NC(=O)[C@H](CO)NC(=O)[C@H](Cc1c[nH]c2ccccc12)NC(=O)CCc1ccc(F)cc1` [Compound 119, N-(3-(4-Fluorophenyl)propionyl)-Trp-Ser-Tyr-D-Lys(Nic) -Leu-Arg-Pro-NHEt] ({Propanoyl(3-(4-F-phenyl))}-WSY[dK](Nicotinoyl)LRP-NHEt), for which, under setting [1], the Ki is 0.347 nM.
The same measure, in the same setting: the value for `CCNC(=O)[C@@H]1CCCN1C(=O)[C@H](CCCN=C(N)N)NC(=O)[C@H](CC(C)C)NC(=O)[C@@H](Cc1c[nH]c2ccccc12)NC(=O)[C@H](Cc1ccc(O)cc1)NC(=O)[C@H](CO)N(C)C(=O)[C@@H](Cc1c[nH]c2ccccc12)NC(=O)CCc1ccc(F)cc1` [Compound 121] ({Propanoyl(3-(4-F-phenyl))}-[dW][NMeS]Y[dW]LRP-NHEt) was 0.0955 nM.
As for `CCNC(=O)[C@@H]1CCCN1C(=O)[C@H](CCCN=C(N)N)NC(=O)[C@H](CC(C)C)NC(=O)[C@@H](CCCCNC(=O)c1cccnc1)NC(=O)[C@H](Cc1ccc(O)cc1)N(C)C(=O)[C@H](CO)NC(=O)[C@@H](Cc1c[nH]c2ccccc12)NC(=O)CCc1ccc(F)cc1` [Compound 122, N-(3-(4-Fluorophenyl)propionyl)-D-Trp-Ser-N-Me-Tyr-D -Lys(Nic)-Leu-Arg-ProNHEt] ({Propanoyl(3-(4-F-phenyl))}-[dW]S[NMeY][dK](Nicotinoyl)LRP-NHEt), the Ki under setting [1] was 0.00955 nM.
Consider `CC(C)C[C@H](NC(=O)[C@@H](Cc1cn(C=O)c2ccccc12)NC(=O)[C@H](Cc1ccc(O)cc1)NC(=O)[C@H](CO)NC(=O)[C@@H](Cc1cn(C=O)c2ccccc12)NC(=O)CCc1ccc(F)cc1)C(=O)N[C@@H](CCCNC(=N)N)C(=O)N1CCC[C@H]1C(=O)N[C@H](C)C(N)=O` [Compound 123, N-3-(4-Fluorophenyl)propionyl-D-Trp-(N-indole-formyl)-Ser -Tyr-D-Trp(N-indole-formyl)-Leu-Arg-Pro-D-AlaNH2] ({Propanoyl(3-(4-F-phenyl))}-[dW](For)SY[dW](For)LRP[dA]-NH2), for which, under setting [1], the Ki was 0.331 nM.
The same measure, in the same setting: under `CCNC(=O)[C@@H]1CCCN1C(=O)[C@H](CCCNC(=N)N)NC(=O)[C@H](CC(C)C)NC(=O)[C@@H](Cc1c[nH]c2ccccc12)NC(=O)[C@H](Cc1ccc(O)cc1)NC(=O)[C@H](CO)NC(=O)[C@H](Cc1c[nH]c2ccccc12)NC(=O)[C@H](Cc1ccccc1)NC(=O)NCCc1ccccc1` [Compound 124, (2-9)[N-(N-alpha-Phenethylaminocarbonyl)-Phe^2 -D-Trp^6 -Pro^9 NHEt]LHRH] ({NHPhenethyl-CO}-FWSY[dW]LRP-NHEt) stands 0.347 nM.
On to `CCNC(=O)[C@@H]1CCCN1C(=O)[C@H](CCCNC(=N)N)NC(=O)[C@H](CC(C)C)NC(=O)[C@@H](Cc1c[nH]c2ccccc12)NC(=O)[C@H](Cc1ccc(O)cc1)NC(=O)[C@H](CO)NC(=O)[C@H](Cc1c[nH]c2ccccc12)NC(=O)[C@H](Cc1ccccc1)NC(=O)NC1CCCCC1` [Compound 125, (2-9)[N-(N-alpha-Cyclohexylaminocarbonyl)-Phe^2 -D-Trp^6 -Pro^9 NHEt]LHRH] ({NHcHex-CO}-FWSY[dW]LRP-NHEt), for which, under setting [1], the Ki is 0.251 nM.
For `CCNC(=O)[C@@H]1CCCN1C(=O)[C@H](CCCNC(=N)N)NC(=O)[C@H](CC(C)C)NC(=O)[C@@H](Cc1c[nH]c2ccccc12)NC(=O)[C@H](Cc1ccc(O)cc1)NC(=O)[C@H](CO)NC(=O)[C@H](Cc1c[nH]c2ccccc12)NC(=O)[C@H](Cc1ccccc1)NC(=O)N(C1CCCCC1)C1CCCCC1` [Compound 126, (2-9)[N-(N-alpha-Dicyclohexylaminocarbonyl)-Phe^2 -D-Trp^6 -Pro^9 NHEt]LHRH] ({X5-CO}-FWSY[dW]LRP-NHEt), the Ki (Receptor Binding pkI) is 37.2 nM.
`CCNC(=O)N[C@@H](Cc1ccccc1)C(=O)N[C@@H](Cc1c[nH]c2ccccc12)C(=O)N[C@@H](CO)C(=O)N[C@@H](Cc1ccc(O)cc1)C(=O)N[C@H](Cc1c[nH]c2ccccc12)C(=O)N[C@@H](CC(C)C)C(=O)N[C@@H](CCCNC(=N)N)C(=O)N1CCC[C@H]1C(=O)NCC` [Compound 127, (2-9)[N-(N-alpha-Ethylaminocarbonyl)-Phe^2 -D-Trp^6 -Pro^9 NHEt]LHRH] ({NHEt-CO}-FWSY[dW]LRP-NHEt): the Ki under setting [1] is 0.2 nM.
